Laboratory results from US20150196580A1, “USE OF DEFIBROTIDE FOR THE INHIBITION OF HEPARANASE” (GENTIUM SPA, priority 2006, published 2015).
“Also recorded” adds a separate entry of the source.

Legend:
[1] = system: Heparanase gene expression; experiment: Real-Time PCR of Heparanase gene expression in HMEC cells; format: cell-based, human; settings: DF 150 μg/ml, 24 h, vs saline control, triplicate
Protocol: (§1) To evaluate the effect of DF either on Heparanase expression and its activity, the U266 and HMEC cells were incubated for 24 h with DF at different concentrations or saline (control cells). After incubation with Defibrotide, the cells were washed with phosphate-buffered saline (PBS) pH 7.4, and different U266 and HMEC samples were prepared for different experiments.
(§2) RNA has been isolated from U266 and HMEC cells (1.5×10^5 Cells/ml) treated with saline (control) or DF at doses of 150 and 400 μg/ml for 24 h. To isolate the RNA were used the RNeasy Mini Kit from Qiagen according the manufacture's instructions.
(§3) The 1% agarose gel electrophoresis, stained with Ethidium Bromide, was performed on all samples to check for presence of clear 28S and 18S ribosomal subunit bands. […]
(§4) In order to perform the Real Time PCR was used the SYBER Green PCR Master Mix Reagent (SYBER Green PCR--Bio-Rad). Direct detection of polymerase chain reaction (PCR) product was monitored by measuring the increase in fluorescence caused by the binding of SYBER Green to double-stranded DNA. […]
Real-Time PCR was performed on cDNAs prepared from HMEC cells treated with saline (control) or DF at dose of 150 μg/ml. The experiments were performed in triplicate and the results are expressed as mRNA levels normalized by the housekeeping actin gene.

Heparanase = target: T1, Heparanase (Homo sapiens, UniProt Q9Y251); experiment: Heparanase activity assay (Heparan Degrading Enzyme Assay Kit) in U266 extracts; format: cell-based; settings: U266 cells, DF 50, 100 and 150 μg/ml, 24 h, vs saline control, triplicate
T1 construct: The Heparanase activity was measured in U266 extracts (1×10^5 Cell/ml of extraction buffer) by a commercial Heparan Degrading Enzyme Kit; endogenous in cells; host or cells: U266 myeloma cells (cell extract)
T1 sequence (Q9Y251 158-543 limits assumed): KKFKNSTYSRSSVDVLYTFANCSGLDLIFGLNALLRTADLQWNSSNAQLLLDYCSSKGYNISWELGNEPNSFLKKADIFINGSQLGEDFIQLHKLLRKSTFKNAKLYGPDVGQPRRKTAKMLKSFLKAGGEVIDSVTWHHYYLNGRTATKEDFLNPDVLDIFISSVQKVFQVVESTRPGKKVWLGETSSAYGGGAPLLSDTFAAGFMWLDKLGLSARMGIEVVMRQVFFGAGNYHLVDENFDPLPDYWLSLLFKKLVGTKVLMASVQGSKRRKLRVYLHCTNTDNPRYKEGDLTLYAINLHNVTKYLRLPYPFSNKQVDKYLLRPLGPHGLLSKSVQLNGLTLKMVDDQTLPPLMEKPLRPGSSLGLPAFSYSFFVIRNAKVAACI
T1 sequence (Q9Y251 36-109 limits assumed): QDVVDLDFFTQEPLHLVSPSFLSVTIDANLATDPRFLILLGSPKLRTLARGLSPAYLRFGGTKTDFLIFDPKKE
Protocol: as §1
The Heparanase activity was measured in U266 extracts (1×10^5 Cell/ml of extraction buffer) by a commercial Heparan Degrading Enzyme Kit (Takara-bio Inc.) according to manufacturer's instruction. The U266 cells have been treated with saline (control) or DF at doses of 50, 100 and 150 μg/ml for 24 h.
Heparan Degrading Enzyme Assay Kit measure the activity of heparan degrading enzyme in cultured cells, utilizing the property that heparan-like molecules and bFGF (basic fibroblast growth factor) combine each other. CBD-FGF is a fusion protein of cell-binding domain of human fibronectin and human fibroblast growth factor (Takara-bio Inc.). […]
The activity of Heparanase were measured using the Heparanse Degrading Enzyme Assay kit on U266 cells treated with saline (control) or Defibrotide at dose of 50, 100 and 150 μg/ml. The experiments were performed in triplicate and the activity of Heparanase is shown with decrease of absorbance.

[2] = system: Heparanase gene expression; experiment: Real-Time PCR of Heparanase gene expression in U266 myeloma cells; format: cell-based; settings: DF 150 and 400 μg/ml, 24 h, vs saline control, triplicate
Protocol: as §1, §2, §3, §4
Real-Time PCR was performed on cDNAs prepared from U266 cells treated with saline (control) or DF at dose of 150 and 400 μg/ml. The experiments were performed in triplicate and the results are expressed as mRNA levels normalized by the housekeeping actin gene.

Substance: defibrotide [DF]
- Effect on Heparanase gene expression (mRNA levels normalized by the housekeeping actin gene) [1]: acts on Microvascular endothelial cells through altering the Heparanase gene expression; also recorded: downregulation of Heparanase gene expression on HMEC cells
- Effect on enzymatic activity of Heparanase (shown with decrease of absorbance) (Heparanase): interferes on the Heparanase activity in the myeloma cell line; also recorded: decrease of its enzymatic activity
- Effect on Heparanase gene expression (mRNA levels normalized by the housekeeping actin gene) [2]: acts on U266 myeloma cells line through altering the Heparanase gene expression; also recorded: down regulation of Heparanase gene
